Experimental data reported in patent US12084453B2, “Bicyclic amines as CDK12 inhibitors” (Incyte Corporation, priority 2021, dated 2024).

Biological target: T1, CDK12 complexed with Cyclin K (Homo sapiens, UniProt Q9NYV4)
T1 construct: GST (N); host or cells: baculovirus expression system
Assay: CDK enzymatic assay (HTRF, LANCE Ultra kinase assay)
Format: biochemical
Conditions: 60 minutes pre-incubation with compound; 1 mM ATP
Experimental: The following activity of the CDK enzymes in complex with their respective cyclins we assayed: CDK1 complexed with Cyclin B1; CDK2 complexed with Cyclin E1; CDK4 complexed with Cyclin D1; CDK6 complexed with Cyclin D1; CDK6 complexed with Cyclin D3; CDK9 complexed with Cyclin T1; CDK7 complexed with Cyclin H/MAT1; CDK2 complexed with Cyclin A2; CDK5 complexed with p35; CDK12 complexed with Cyclin K; CDK13 complexed with Cyclin K. These in vitro enzyme activity are assayed using homogeneous time-resolved energy transfer (HTRF), which measures phosphorylation of a peptide substrate. The LANCE® Ultra kinase assay (PerkinElmer) uses a ULight™-labeled EIF4E-binding protein 1 (THR37/46) peptide (DYSTTPGGTLFSTTPGTRI (SEQ ID NO: 1)) substrate and a Europium-labeled anti-phospho-4E-BP1 antibody (CDK2, CDK1, CDK4, CDK6, CDK9, CDK12, CDK13) or ULight™-labeled Myelin Basic Protein peptide (VTPRTPPP (SEQ ID NO: 2)) substrate and a Europium-labeled anti-phospho-MBP antibody (CDK7). Each CDK enzyme activity assays utilized human CDK co-expressed as N-terminal GST-tagged protein with its full length cyclin partner using a baculovirus expression system.
Enzyme was pre-incubated with compounds for 30 minutes (CDK1,2,4,6,9) or 60 minutes (CDK7, CDK12, CDK13) prior to addition of ATP and Ulight-peptide (1 mM and 50 nM final, respectively), in assay buffer containing 50 mM HEPES pH 7.5, 1 mM EGTA, 10 mM MgCl2, 2 mM DTT, 0.05 mg/mL BSA, and 0.01% Tween 20. The reaction was then incubated for 60-90 minutes at room temperature. The reactions were stopped by the addition of EDTA and Europium labeled antibody, for a final concentration of 15 mM and 1.0-1.5 nM, respectively. HTRF signals were read after 15-120 minutes. A ratio of fluorescence transferred to the labeled substrate (665 nm) relative to fluorescence of the Europium donor (620 nm) represents the extent of phosphorylation. Ratios for treated wells were normalized to DMSO only (100% activity) and no enzyme (0% activity) controls. Normalized data was analyzed using a three or four parameter dose response curve to determine IC50 for each compound and are shown in Table A. Control reference inhibitors were included on each plate.

T1 sequence (Q9NYV4 whole entry): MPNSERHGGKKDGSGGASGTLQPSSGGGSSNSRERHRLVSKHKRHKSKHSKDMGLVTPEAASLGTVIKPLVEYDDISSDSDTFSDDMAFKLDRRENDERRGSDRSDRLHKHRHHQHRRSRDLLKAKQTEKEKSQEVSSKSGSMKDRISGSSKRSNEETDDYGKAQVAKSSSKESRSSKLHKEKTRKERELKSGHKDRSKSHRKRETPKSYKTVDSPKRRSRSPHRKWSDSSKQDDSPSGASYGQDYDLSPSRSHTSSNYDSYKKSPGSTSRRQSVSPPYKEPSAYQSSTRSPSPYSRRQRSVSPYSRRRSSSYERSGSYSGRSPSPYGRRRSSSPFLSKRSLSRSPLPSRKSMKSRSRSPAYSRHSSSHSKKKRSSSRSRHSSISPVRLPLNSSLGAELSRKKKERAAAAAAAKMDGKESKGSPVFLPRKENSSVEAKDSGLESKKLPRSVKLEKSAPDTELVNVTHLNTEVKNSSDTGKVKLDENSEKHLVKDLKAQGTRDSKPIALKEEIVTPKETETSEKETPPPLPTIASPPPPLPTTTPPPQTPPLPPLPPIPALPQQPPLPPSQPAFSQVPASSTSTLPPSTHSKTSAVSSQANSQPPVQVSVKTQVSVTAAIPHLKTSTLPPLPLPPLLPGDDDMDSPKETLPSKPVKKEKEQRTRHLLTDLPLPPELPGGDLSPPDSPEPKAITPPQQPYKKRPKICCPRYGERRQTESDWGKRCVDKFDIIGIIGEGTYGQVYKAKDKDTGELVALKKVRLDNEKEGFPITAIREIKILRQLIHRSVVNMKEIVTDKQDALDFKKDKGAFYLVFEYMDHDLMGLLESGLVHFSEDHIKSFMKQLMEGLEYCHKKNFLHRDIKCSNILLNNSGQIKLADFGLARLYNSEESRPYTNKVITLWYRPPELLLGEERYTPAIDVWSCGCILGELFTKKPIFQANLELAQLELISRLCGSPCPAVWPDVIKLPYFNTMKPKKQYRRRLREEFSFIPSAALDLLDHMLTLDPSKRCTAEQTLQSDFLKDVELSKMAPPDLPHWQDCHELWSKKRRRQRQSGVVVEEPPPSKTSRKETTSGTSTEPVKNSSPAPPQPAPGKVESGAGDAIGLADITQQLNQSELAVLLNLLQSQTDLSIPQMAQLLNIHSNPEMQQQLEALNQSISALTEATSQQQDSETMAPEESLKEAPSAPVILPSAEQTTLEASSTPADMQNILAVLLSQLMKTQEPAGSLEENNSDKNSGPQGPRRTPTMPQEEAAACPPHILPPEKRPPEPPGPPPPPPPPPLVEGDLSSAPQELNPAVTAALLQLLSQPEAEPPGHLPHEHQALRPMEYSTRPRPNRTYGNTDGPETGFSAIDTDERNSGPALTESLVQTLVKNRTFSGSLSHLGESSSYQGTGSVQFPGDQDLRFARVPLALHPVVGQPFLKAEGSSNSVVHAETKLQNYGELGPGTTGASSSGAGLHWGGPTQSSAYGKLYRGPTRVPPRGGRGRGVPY
T1 sequence (O75909 whole entry partner): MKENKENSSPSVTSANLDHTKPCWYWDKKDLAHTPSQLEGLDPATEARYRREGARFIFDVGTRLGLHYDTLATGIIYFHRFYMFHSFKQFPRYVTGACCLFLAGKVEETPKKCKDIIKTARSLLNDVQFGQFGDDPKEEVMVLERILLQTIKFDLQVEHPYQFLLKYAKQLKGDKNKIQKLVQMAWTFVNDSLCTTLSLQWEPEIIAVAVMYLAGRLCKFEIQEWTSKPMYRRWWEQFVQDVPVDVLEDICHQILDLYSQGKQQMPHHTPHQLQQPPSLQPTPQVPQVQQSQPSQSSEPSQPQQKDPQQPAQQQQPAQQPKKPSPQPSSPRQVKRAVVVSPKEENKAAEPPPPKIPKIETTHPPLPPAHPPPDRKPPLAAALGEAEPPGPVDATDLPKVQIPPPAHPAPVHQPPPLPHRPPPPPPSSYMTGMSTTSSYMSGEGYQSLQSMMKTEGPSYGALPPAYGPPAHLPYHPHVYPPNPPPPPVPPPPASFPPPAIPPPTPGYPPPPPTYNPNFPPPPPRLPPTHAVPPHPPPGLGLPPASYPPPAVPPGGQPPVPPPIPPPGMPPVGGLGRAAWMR

Row | IC50 [nM] | Structure (SMILES)
1 | < 50 | C=CC(=O)Nc1ccc(C(=O)N2CCC[C@@H](Nc3nc4cnc(-c5cn[nH]c5)c(OC(C)C)n4n3)C2)c(F)c1 [Example 4, (R)-N-(3-Fluoro-4-(3-((5-isopropoxy-6-(1H-pyrazol-4-yl)-[1,2,4]triazolo[1,5-a]pyrazin-2-yl)amino)piperidine-1-carbonyl)phenyl)acrylamide]
2 | < 50 | C=CC(=O)Nc1ccc(C(=O)N2CCC[C@@H](Nc3nc4c(OC)c(-c5cn[nH]c5)ncn4n3)C2)cc1 [Example 5, (R)-N-(4-(3-((8-Methoxy-7-(1H-pyrazol-4-yl)-[1,2,4]triazolo[1,5-c]pyrimidin-2-yl)amino)piperidine-1-carbonyl)phenyl)acrylamide]
3 | < 50 | C=CC(=O)Nc1ccc(C(=O)N2CCC[C@@H](Nc3nc4ccc(-c5cn[nH]c5)c(O[C@H]5CCOC5)n4n3)C2)cc1 [Example 14, N-(4-((R)-3-((6-(1H-Pyrazol-4-yl)-5-(((S)-tetrahydrofuran-3-yl)oxy)-[1,2,4]triazolo[1,5-a]pyridin-2-yl)amino)piperidine-1-carbonyl)phenyl)acrylamide]
4 | < 50 | C=CC(=O)Nc1cnc(N2CCC[C@@H](Nc3nc4ccc(-c5cn[nH]c5)c(C(F)(F)F)n4n3)C2)c(C)c1 [Example 38, (R)-N-(6-(3-((6-(1H-pyrazol-4-yl)-5-(trifluoromethyl)-[1,2,4]triazolo[1,5-a]pyridin-2-yl)amino)piperidin-1-yl)-5-methylpyridin-3-yl)acrylamide]
5 | < 50 | C=CC(=O)Nc1ccc(C(=O)N2CCC[C@@H](Nc3nc4ccc(-c5cn[nH]c5)c(N5CCCC5)n4n3)C2)cc1 [Example 7, (R)-N-(4-(3-((6-(1H-Pyrazol-4-yl)-5-(pyrrolidin-1-yl)-[1,2,4]triazolo[1,5-a]pyridin-2-yl)amino)piperidine-1-carbonyl)phenyl)acrylamide]
6 | < 50 | C=CC(=O)Nc1ccc2sc(N3CCC[C@@H](Nc4nc5ccc(-c6cn[nH]c6)c(C(C)C)n5n4)C3)nc2c1 [Example 27, (R)-N-(2-(3-((5-Isopropyl-6-(1H-pyrazol-4-yl)-[1,2,4]triazolo[1,5-a]pyridin-2-yl)amino)piperidin-1-yl)benzo[d]thiazol-5-yl)acrylamide]
7 | < 50 | C=CC(=O)Nc1ccc2c(c1)nc(N1CCC[C@@H](Nc3nc4ccc(-c5cn[nH]c5)c(C(C)C)n4n3)C1)n2C [Example 28, (R)-N-(2-(3-((5-Isopropyl-6-(1H-pyrazol-4-yl)-[1,2,4]triazolo[1,5-a]pyridin-2-yl)amino)piperidin-1-yl)-1-methyl-1H-benzo[d]imidazol-5-yl)acrylamide]
8 | < 50 | C=CC(=O)Nc1ccc(C(=O)N2CCC[C@@H](Nc3nc4ccc(-c5cn[nH]c5)c(OC5CCOCC5)n4n3)C2)cc1 [Example 15, (R)-N-(4-(3-((6-(1H-Pyrazol-4-yl)-5-((tetrahydro-2H-pyran-4-yl)oxy)-[1,2,4]triazolo[1,5-a]pyridin-2-yl)amino)piperidine-1-carbonyl)phenyl)acrylamide]
9 | 50 to 500 | C=CC(=O)Nc1ccc(C(=O)N2CCC[C@@H](Nc3nc4ccc(-c5cn[nH]c5)c(N5CCC(F)(F)CC5)n4n3)C2)cc1 [Example 13, (R)-N-(4-(3-((5-(4,4-Difluoropiperidin-1-yl)-6-(1H-pyrazol-4-yl)-[1,2,4]triazolo[1,5-a]pyridin-2-yl)amino)piperidine-1-carbonyl)phenyl)acrylamide]
10 | < 50 | C=CC(=O)Nc1ccc(C(=O)N2CC[C@@H](Nc3nc4ccc(-c5cn[nH]c5)c(C(C)C)n4n3)C2)cc1F [Example 19, (R)-N-(2-Fluoro-4-(3-((5-isopropyl-6-(1H-pyrazol-4-yl)-[1,2,4]triazolo[1,5-a]pyridin-2-yl)amino)pyrrolidine-1-carbonyl)phenyl)acrylamide]

The remaining lines, values behind:

Row | Structure (SMILES) | IC50 [nM]
11 | C=C(F)C(=O)Nc1ccc(C(=O)N2CC[C@@H](Nc3nc4ccc(-c5cn[nH]c5)c(C(C)C)n4n3)C2)cc1 [Example 26, (R)-2-Fluoro-N-(4-(3-((5-isopropyl-6-(1H-pyrazol-4-yl)-[1,2,4]triazolo[1,5-a]pyridin-2-yl)amino)pyrrolidine-1-carbonyl)phenyl)acrylamide] | < 50
12 | C=C(F)C(=O)Nc1ccc(C(=O)N2CC[C@@H](Nc3nc4c(C)c(-c5cn[nH]c5)ccn4n3)C2)cc1 [Example 32, (R)-2-Fluoro-N-(4-(3-((8-methyl-7-(1H-pyrazol-4-yl)-[1,2,4]triazolo[1,5-a]pyridin-2-yl)amino)pyrrolidine-1-carbonyl)phenyl)acrylamide] | < 50
13 | C=CC(=O)Nc1ccc(O[C@H]2CCC[C@@H](Nc3nc4ccc(-c5cn[nH]c5)c(N5CCCCC5)n4n3)C2)cc1 [Example 16, N-(4-(((1S,3R)-3-((5-(Piperidin-1-yl)-6-(1H-pyrazol-4-yl)-[1,2,4]triazolo[1,5-a]pyridin-2-yl)amino)cyclohexyl)oxy)phenyl)acrylamide] | < 50
14 | C=CC(=O)Nc1ccc2c(c1)C(=O)N([C@H]1CCC[C@@H](Nc3nc4ccc(-c5cn[nH]c5)c(C)n4n3)C1)C2 [Example 22, N-(2-((1S,3R)-3-((5-Methyl-6-(1H-pyrazol-4-yl)-[1,2,4]triazolo[1,5-a]pyridin-2-yl)amino)cyclohexyl)-3-oxoisoindolin-5-yl)acrylamide] | < 50
15 | C=CC(=O)Nc1ccc(C(=O)N2CCC[C@@H](Nc3nc4ccc(-c5cn[nH]c5)c(N5CCCCC5)n4n3)C2)cc1 [Example 6, (R)-N-(4-(3-((5-(Piperidin-1-yl)-6-(1H-pyrazol-4-yl)-[1,2,4]triazolo[1,5-a]pyridin-2-yl)amino)piperidine-1-carbonyl)phenyl)acrylamide] | < 50
16 | CC#CC(=O)Nc1ccc(C(=O)N2CC[C@@H](Nc3nc4c(C)c(-c5cn[nH]c5)ccn4n3)C2)cc1 [Example 33, (R)-N-(4-(3-((8-Methyl-7-(1H-pyrazol-4-yl)-[1,2,4]triazolo[1,5-a]pyridin-2-yl)amino)pyrrolidine-1-carbonyl)phenyl)but-2-ynamide] | < 50
17 | C=CC(=O)Nc1ccc(C(=O)N2CCC(Nc3nc4c(OC)c(-c5cn[nH]c5)ncn4n3)CC2)cc1 [Example 2, N-(4-(4-((8-Methoxy-7-(1H-pyrazol-4-yl)-[1,2,4]triazolo[1,5-c]pyrimidin-2-yl)amino)piperidine-1-carbonyl)phenyl)acrylamide] | < 50
18 | C=CC(=O)Nc1ccc2c(c1)nc(N1CCC[C@@H](Nc3nc4ccc(-c5cn[nH]c5)c(C(F)(F)F)n4n3)C1)n2C [Example 36, (R)-N-(2-(3-((6-(1H-pyrazol-4-yl)-5-(trifluoromethyl)-[1,2,4]triazolo[1,5-a]pyridin-2-yl)amino)piperidin-1-yl)-1-methyl-1H-benzo[d]imidazol-5-yl)acrylamide] | < 50
19 | C=CC(=O)Nc1ccc(C(=O)N2CC[C@@H](Nc3nc4ccc(-c5cn[nH]c5)cn4n3)C2)cc1 [Example 11, (R)-N-(4-(3-((6-(1H-Pyrazol-4-yl)-[1,2,4]triazolo[1,5-a]pyridin-2-yl)amino)pyrrolidine-1-carbonyl)phenyl)acrylamide] | < 50
20 | C=CC(=O)Nc1ccc(C(=O)N2CCCC(Nc3nc4ccc(-c5c[nH]nc5C)c(N5CCOCC5)n4n3)C2)cc1 (centres unmarked) [Example 9, N-(4-(3-((6-(3-Methyl-1H-pyrazol-4-yl)-5-morpholino-[1,2,4]triazolo[1,5-a]pyridin-2-yl)amino)piperidine-1-carbonyl)phenyl)acrylamide] | > 500
21 | C=CC(=O)Nc1ccc2c(c1)C(=O)N([C@H]1CCC[C@@H](Nc3nc4ccc(-c5cn[nH]c5)c(C(C)C)n4n3)C1)C2 [Example 23, N-(2-((1S,3R)-3-((5-Isopropyl-6-(1H-pyrazol-4-yl)-[1,2,4]triazolo[1,5-a]pyridin-2-yl)amino)cyclohexyl)-3-oxoisoindolin-5-yl)acrylamide] | < 50
22 | C=CC(=O)N(C)c1ccc(C(=O)N2CC[C@@H](Nc3nc4ccc(-c5cn[nH]c5)c(C(C)C)n4n3)C2)cc1 [Example 25, (R)-N-(4-(3-((5-Isopropyl-6-(1H-pyrazol-4-yl)-[1,2,4]triazolo[1,5-a]pyridin-2-yl)amino)pyrrolidine-1-carbonyl)phenyl)-N-methylacrylamide] | < 50
23 | C=CC(=O)Nc1ccc2c(c1)C(=O)N([C@H]1CCC[C@@H](Nc3nc4ccc(-c5cn[nH]c5)c(N5CCCCC5)n4n3)C1)C2 [Example 21, N-(3-Oxo-2-((1S,3R)-3-((5-(piperidin-1-yl)-6-(1H-pyrazol-4-yl)-[1,2,4]triazolo[1,5-a]pyridin-2-yl)amino)cyclohexyl)isoindolin-5-yl)acrylamide] | < 50
